Reference: patent US20100160264A1, “CRYSTALLINE SOLID FORMS” (priority 2007, published 2010)
≈ marks a conversion by molar mass, not a printed value.

Columns and labels:
[1] = Water content and hygroscopicity: open storage for 24 hours at 80% relative humidity; type: physicochemical; conditions: for water content 1 day at 80% rH: open storage 1 day at 80% rH; for water uptake 1 day at 80% rH / Hygroscopicity in words: open storage 24 hours at 80% relative humidity
Source text: Furthermore suitable crystalline forms of Tigecycline should be low hygroscopic, as water uptake may cause the formation of undesired byproducts like e.g. 4-Epi-Tigecycline.

[2] = Stability after storing different crystalline forms of Tigecycline at 80° C. for 7 days (4-Epi-Tigecycline and total impurities); type: physicochemical; conditions: for Stability in words (total impurities and 4-Epi-Tigecycline content): 7 days at 80° C.; for 4-Epi-Tigecycline 7 days at 80° C. / Total impurities 7 days at 80° C.: after storing 7 days at 80° C., in % (unit assumed); for 4-Epi-Tigecycline ambient conditions / Total impurities ambient conditions: before storage, depends on purity of the starting material
Source text: A suitable crystalline form of Tigecycline for formulating an anti-infective medicament first of all is required to be thermodynamic stable, in order to avoid formation of degradation products.

[3] = 30 min
Description: The water solubility determination of the different crystalline forms of Tigecycline was performed on a Perkin Elmer® Lambda 35 UV/VIS spectrometer. The software used was Perkin Elmer® UV WlnLab-5.1.
200 mg of Tigecycline were stirred with 1 ml distilled water at room temperature for 30 minutes. The suspension was filtered through a 0.45 μm filter and 100 μl of the solution were transferred into a 1 L volumetric flask. After filling up to the check mark with distilled water the solution was measured at 347 nm.

[4] = cited from earlier work

## CN(C)c1cc(NC(=O)CNC(C)(C)C)c(O)c2c1C[C@H]1C[C@H]3[C@H](N(C)C)C(O)=C(C(N)=O)C(=O)[C@@]3(O)C(O)=C1C2=O [Form I, Tigecycline]
[1]; listed as I
  water content ambient conditions: 2.01%
  water content 1 day at 80% rH: 5.01%
  water uptake 1 day at 80% rH: 3.00%
[2]
  Stability in words (total impurities and 4-Epi-Tigecycline content): tremendous increase
[2]; listed as I
  4-Epi-Tigecycline 7 days at 80° C.: 2.15
  Total impurities 7 days at 80° C.: 11.20
  4-Epi-Tigecycline ambient conditions: 0.36%
  Total impurities ambient conditions: 0.75%
[3]
  Solubility, Concentration: 185 mg/mL (≈ 316 mM)

## CN(C)c1cc(NC(=O)CNC(C)(C)C)c(O)c2c1C[C@H]1C[C@H]3[C@H](N(C)C)C(O)=C(C(N)=O)C(=O)[C@@]3(O)C(O)=C1C2=O [Form II, Tigecycline]
[1]; listed as II
  water content ambient conditions: 2.93%
  water content 1 day at 80% rH: 10.04%
  water uptake 1 day at 80% rH: 7.11%
[2]; listed as form II
  Stability in words (total impurities and 4-Epi-Tigecycline content): tremendous increase
[2]; listed as II
  4-Epi-Tigecycline 7 days at 80° C.: 10.83
  Total impurities 7 days at 80° C.: 18.44
  4-Epi-Tigecycline ambient conditions: 1.04%
  Total impurities ambient conditions: 1.6%
[3]
  Solubility, Concentration: 177 mg/mL (≈ 302 mM)

## CN(C)c1cc(NC(=O)CNC(C)(C)C)c(O)c2c1C[C@H]1C[C@H]3[C@H](N(C)C)C(O)=C(C(N)=O)C(=O)[C@@]3(O)C(O)=C1C2=O [Form III, Tigecycline]
[1]; listed as III
  water content ambient conditions: 0.69%
  water content 1 day at 80% rH: 8.01%
  water uptake 1 day at 80% rH: 7.32%
[1]
  water uptake 1 day at 80% rH: 7.32%
[2]; listed as III
  4-Epi-Tigecycline 7 days at 80° C.: 2.18
  Total impurities 7 days at 80° C.: 4.46
  4-Epi-Tigecycline ambient conditions: 0.16%
  Total impurities ambient conditions: 0.16%
[3]
  Solubility, Concentration: 174 mg/mL (≈ 297 mM)

## CN(C)c1cc(NC(=O)CNC(C)(C)C)c(O)c2c1C[C@H]1C[C@H]3[C@H](N(C)C)C(O)=C(C(N)=O)C(=O)[C@@]3(O)C(O)=C1C2=O [Form IV, Tigecycline]
[1]; listed as IV
  water content ambient conditions: 2.90%
  water content 1 day at 80% rH: 3.33%
  water uptake 1 day at 80% rH: 0.43%
[2]; listed as IV
  4-Epi-Tigecycline 7 days at 80° C.: 0.38
  Total impurities 7 days at 80° C.: 0.87
  4-Epi-Tigecycline ambient conditions: 0.23%
  Total impurities ambient conditions: 0.4%
[3]
  Solubility, Concentration: 183 mg/mL (≈ 312 mM)

## CN(C)c1cc(NC(=O)CNC(C)(C)C)c(O)c2c1C[C@H]1C[C@H]3[C@H](N(C)C)C(O)=C(C(N)=O)C(=O)[C@@]3(O)C(O)=C1C2=O [Form V, Tigecycline]
[1]; listed as V
  water content ambient conditions: 0.19%
  water content 1 day at 80% rH: 1.88%
  water uptake 1 day at 80% rH: 1.69%
[2]; listed as V
  4-Epi-Tigecycline 7 days at 80° C.: 0.18
  Total impurities 7 days at 80° C.: 0.37
  4-Epi-Tigecycline ambient conditions: < 0.05%
  Total impurities ambient conditions: 0.22%
[3]
  Solubility, Concentration: 134 mg/mL (≈ 229 mM)

## CN(C)c1cc(NC(=O)CNC(C)(C)C)c(O)c2c1C[C@H]1C[C@H]3[C@H](N(C)C)C(O)=C(C(N)=O)C(=O)[C@@]3(O)C(O)=C1C2=O [Form VI, Tigecycline]
[1]; listed as VI
  water content ambient conditions: 0.18%
  water content 1 day at 80% rH: 0.25%
  water uptake 1 day at 80% rH: 0.07%
[1]
  Hygroscopicity in words: low hygroscopicity
[2]; listed as VI
  Stability in words (total impurities and 4-Epi-Tigecycline content): adequate stability data
  4-Epi-Tigecycline 7 days at 80° C.: 0.38
  Total impurities 7 days at 80° C.: 0.91
  4-Epi-Tigecycline ambient conditions: 0.17%
  Total impurities ambient conditions: 0.24%
[3]
  Solubility, Concentration: 76 mg/mL (≈ 130 mM)

## CN(C)c1cc(NC(=O)CNC(C)(C)C)c(O)c2c1C[C@H]1C[C@H]3[C@H](N(C)C)C(O)=C(C(N)=O)C(=O)[C@@]3(O)C(O)=C1C2=O [Form VIII, Tigecycline]
[1]; listed as VIII
  water content ambient conditions: 0.10%
  water content 1 day at 80% rH: 0.21%
  water uptake 1 day at 80% rH: 0.11%
[1]; listed as form VIII
  Hygroscopicity in words: no water uptake at all
  water uptake 1 day at 80% rH: 0.11%
[2]; listed as VIII
  Stability in words (total impurities and 4-Epi-Tigecycline content): adequate stability data
  4-Epi-Tigecycline 7 days at 80° C.: 0.70
  Total impurities 7 days at 80° C.: 2.13
  4-Epi-Tigecycline ambient conditions: 0.15%
  Total impurities ambient conditions: 0.43%
[2]; listed as form VIII
  Stability in words (total impurities and 4-Epi-Tigecycline content): adequate stability data
[3]
  Solubility, Concentration: 141 mg/mL (≈ 241 mM)

## CN(C)c1cc(NC(=O)CNC(C)(C)C)c(O)c2c1C[C@H]1C[C@H]3[C@H](N(C)C)C(O)=C(C(N)=O)C(=O)[C@@]3(O)C(O)=C1C2=O [Tigecycline, (4S,4aS,5aR,12aS)-4,7-Bis(dimethylamino)-9-[[2-[(1,1-dimethylethyl)amino]acetyl]amino]-1,4,4a,5,5a,6,11,12a-octahydro-3,10,12,12a-tetrahydroxy-1,11-dioxo-2-naphthacene carboxamide]
[4]
  oral bioavailability: very limited
